# US12391751B2, “Antibody against advanced glycation end products and use thereof” (Bloom Technology Corporation, priority 2018, dated 2025)
# Assays:
# PB-1 antibody = assay: Competitive ELISA of GAL691 and known AGEs against PB-1 (Example 31); format: binding, mouse; details: immobilized A-peak-BSA; competitor 0.04 to 2.5 mM; PB-1 0.1 μg/mL
# Protocol: Competitive ELISA was conducted using the reagents described in Example 13. A solution of A-peak-BSA prepared into 1 μg/mL in a coating solution was added at 100 μL/well to a 96-well microtiter plate (Costar) and incubated overnight at 4° C.
# (§1) Each well after the immobilization treatment was washed three times with a washing solution (300 μL), and a blocking solution (200 μL) was added thereto and left at room temperature for 1 hour.
# GAL691 (prepared in Example 16), GLAP (prepared in Example 12), Lys-hydroxy-triosidine (prepared in Example 17), GA-pyridine (prepared in Example 28), GOLD (prepared in Example 29), and Z-Lys were each dissolved in a phosphate buffer solution (0.2 M, pH 7.4) to prepare a 100 mM solution. Then, a 10 mM solution was prepared by dilution 10-fold with a diluting solution containing BSA (1 mg/mL, FUJIFILM Wako Pure Chemical Corp.). Sample solutions of 4-fold dilution series of 0.04, 0.16, 0.63, and 2.5 mM were further prepared with a diluting solution containing a 10% (v/v) phosphate buffer solution and 1 mg/mL BSA. Ten-fold dilutions of a phosphate buffer solution with a diluting solution containing 1 mg/mL BSA were prepared as blank solutions containing no sample in the same way as above. A 0.1 μg/mL solution of the PB-1 antibody was prepared with a diluting solution containing 1 mg/mL BSA.
# Each well treated with the blocking solution was washed three times with a washing solution (300 μL), and the sample solutions of 4-fold dilution series (50 μL each) and the PB-1 antibody dilution solution (50 μL) were added thereto, stirred with a plate mixer for 2 minutes, and then incubated at room temperature for 1 hour.
# After the competitive reaction, each well was washed three times with a washing solution (300 μL), and peroxidase-labeled anti-mouse IgG (H+L) polyclonal antibody, F(ab′)2 fragment (Kirkegaard & Perry Laboratories, Inc.) diluted into 0.05 μg/mL with a diluting solution containing 1 mg/mL BSA was added at 100 μL/well and left standing at room temperature for 1 hour.
# After washing three times with a washing solution (300 μL), a substrate solution (ELISA POD substrate TMB kit (Popular), Nacalai Tesque, Inc.) was added at 100 μL/well and incubated at room temperature for 10 minutes under light shielding. Then, color development was terminated by the addition of 2 N sulfuric acid (50 μL).
# Absorbance was measured at a dominant wavelength of 450 nm and a sub-wavelength of 650 nm with a microplate reader (Cytation 5, BioTek Instrument Inc.), and the absorbance at the sub-wavelength was subtracted from the absorbance at the dominant wavelength. Change in the absorbance of GAL691, GLAP, Lys-hydroxy-triosidine, GA-pyridine, GOLD, and Z-Lys was indicated as relative values to the absorbance of the blank solution.
# [1] = system: POD-labeled novel monoclonal antibody (SJ-5); assay: Competitive ELISA of GAL13, GLAP, Z-Lys-OH against SJ-5 (Example 13); format: binding, mouse; details: immobilized Glycer-AGEs-BSA; competitor 0.0063 to 2 mg/mL
# Protocol: A solution of BSA containing AGEs derived from glyceraldehyde (stock solution: 10 mg/mL PBS solution) prepared into 1 μg/mL in a coating solution was added at 100 μL/well to a 96-well microtiter plate (COSTAR) and incubated overnight at 4° C.
# as §1
# GAL13 (prepared in Example 2), GLAP (prepared in Example 12), and Z-Lys-OH (Tokyo Chemical Industry Co., Ltd.) were each dissolved in a phosphate buffer solution (0.2 M, pH 7.4) to prepare a 20 mg/mL solution. Sample solutions of 2-fold dilution series from 0.0063 to 2 mg/mL (6 points) were further prepared by dilution with a diluting solution. A POD-labeled novel monoclonal antibody (SJ-5) solution was diluted 16,000-fold with a diluting solution containing BSA (1 mg/mL, FUJIFILM Wako Pure Chemical Corp.) to prepare a POD-labeled SJ-5 antibody dilution solution. […]
# Absorbance was measured at a dominant wavelength of 450 nm and a sub-wavelength of 650 nm with a microplate reader (Cytation 5, BioTek Instrument Inc.), and the absorbance at the sub-wavelength was subtracted from the absorbance at the dominant wavelength.
# α-SMA = assay: Endothelial-to-mesenchymal transition inhibition test, real-time PCR (Example 15); format: cell-based, human; details: HUVEC; β-actin internal standard; 8 hours
# Protocol: (§2) 10 μL of Glycer-AGEs-BSA (10 mg/mL) prepared in Example 1, PBS, and 90 μL of SJ-5 (10 mg/mL) or a control antibody (10 mg/mL) were added to a 1.5 mL tube (Watson). Alternatively, 90 μL of a PBS solution of control BSA (10 mg/mL) was added. These solutions were left standing at room temperature for 10 minutes. Then, a supernatant was recovered by centrifugation at 14000 rpm for 15 minutes using a centrifuge (Thermo Fisher Scientific Inc.).
# (§3) HUVEC was cultured in a 10 cm dish using 10 mL of a medium for HUVEC.
# (§4) The cultured HUVEC was washed with 10 mL of PBS. Then, 1 mL of trypsin-EDTA was added thereto and left standing at room temperature for 3 minutes. HUVEC thus left standing was confirmed to be detached from the dish, and trypsin-EDTA was neutralized by the addition of 10 mL of a medium for HUVEC. After the neutralization, the whole amount was transferred to a 50 mL tube and centrifuged at 1500 rpm for 3 minutes using a centrifuge.
# (§5) After the centrifugation, the supernatant was discarded, and precipitated cells were resuspended by the addition of 1 mL of a medium for HUVEC. A 10 μL aliquot from the resuspension was mixed with 10 μL of Trypan Blue, and 10 μL thereof was added to a counting chamber. Then, the number of live cells was counted in Auto Cell Counter EVE. The cell suspension was diluted into 2.5×10^5 cells/mL with a medium for HUVEC and inoculated at 400 μL/well to the Matrigel prepared in (1). After the inoculation, each reaction solution prepared in (2) was added at 100 μL/well, followed by culture for 8 hours in a CO2 incubator.
# (§6) Each well was washed three times with 1 mL of PBS, and Cell Recovery Solution (Corning Inc.) was added at 500 μL/well.
# (§7) The cells and the Matrigel matrix were scraped off using Blue Chip (Watson), recovered into a 1.5 mL tube, and transferred to the 1.5 mL tube after rinsing of each well again with 500 μL of Cell Recovery Solution. The 1.5 mL tube was mixed by inversion five times and then left standing on ice for 1 hour to confirm that the Matrigel matrix was completely degraded. After the Matrigel matrix degradation, a supernatant was discarded by centrifugation at 800 rpm at 4° C. Precipitated cells were gently suspended in 1 mL of ice-cooled PBS and centrifuged at 800 rpm at 4° C. to discard a supernatant. Precipitated cells were gently suspended again in 1 mL of ice-cooled PBS and centrifuged at 800 rpm at 4° C.
# (§8) 125 μL of CellAmp Washing Buffer attached to the kit was added to the cells precipitated by centrifugation, and mixed. […]
# (§9) After the addition, real-time PCR was performed with QuantStudio™ 12K Flex real-time PCR system (Thermo Fisher Scientific Inc.) to quantify gene expression levels. […]
# CD31 = assay: as above; format: cell-based, human; details: HUVEC; β-actin internal standard; 8 hours
# Protocol: as §2, §3, §4, §5, §6, §7, §8, §9
# [2] = system: HUVEC (human umbilical vein endothelial cells); assay: Neutralization test of vascular endothelial cell lumen formation inhibition (Example 14); format: cell-based; details: Matrigel matrix; 8 hours culture
# Protocol: Matrigel matrix (Corning Inc.) was placed in a refrigerator and thawed overnight. The thawed Matrigel matrix was added at 300 μL/well to a 12-well plate (Corning Inc.) and hardened by still standing at 37° C. for 1 hour in a CO2 incubator (ESPEC Corp.).
# (§10) 10 μL of Glycer-AGEs-BSA (10 mg/mL) prepared in Example 1 or 10 μL of control BSA (10 mg/mL), phosphate-buffered saline (PBS, FUJIFILM Wako Pure Chemical Corp.), and 90 μL of SJ-5 (10 mg/mL) or a control antibody (10 mg/mL) were added to a 1.5 mL tube (Watson) and left standing at room temperature for 10 minutes. Then, a supernatant was recovered by centrifugation at 14000 rpm for 15 minutes using a centrifuge (Thermo Fisher Scientific Inc.).
# HUVEC (human umbilical vein endothelial cells, National Institutes of Biomedical Innovation, Health and Nutrition, JCRB cell bank) was cultured in a 10 cm dish (Corning Inc.) using 10 mL of a medium for HUVEC (KAC Co., Ltd.).
# The cultured HUVEC was washed with 10 mL of PBS. Then, 1 mL of trypsin-EDTA (FUJIFILM Wako Pure Chemical Corp.) was added thereto and left standing at room temperature for 3 minutes. […]
# After the centrifugation, the supernatant was discarded, and precipitated cells were resuspended by the addition of 1 mL of a medium for HUVEC. […] Then, the number of live cells was counted in Auto Cell Counter EVE (NanoEnTek Inc.). […]
# HUVEC = assay: Neutralization test of vascular endothelial cell lumen formation inhibition using PB-1 (Example 35); format: cell-based, human; details: Matrigel matrix; 8-hour culture
# Protocol: Matrigel matrix was prepared by the same operation as in Example 14.
# as §10, with “1,” for “1 or”, “of” for “of control BSA (10 mg/mL),”, “the PB-1 antibody” for “SJ-5”
# (3) A lumen formation inhibition test was conducted by the same operation as in Example 14. As shown in the drawing, HUVEC was confirmed to form a lumen in the Matrigel matrix in the control BSA addition group. […] Furthermore, this inhibition of lumen formation was neutralized by the reaction solution of PB-1.
Compound,change in absorbance relative to blank (competition for PB-1 binding) (PB-1 antibody),change in absorbance (competition for SJ-5 binding) [1],also measured
CC(=O)N[C@@H](CCCC[n+]1cc(O)cc(CO)c1)C(=O)O [GLAP],no reduction in absorbance was observed,reduction in absorbance was observed for neither,
CC(=O)NC(CCCCn1cc[n+](CCCCC(NC(C)=O)C(=O)O)c1)C(=O)O (stereo not shown) [GOLD],no reduction in absorbance was observed,,
CC(=O)NC(CCCC[n+]1ccc(CO)c(O)c1)C(=O)O (stereo not shown) [GA-pyridine],no reduction in absorbance was observed,,
Glycer-AGEs-BSA: bovine serum albumin containing AGEs derived from glyceraldehyde [reference compound],,,expression level of α-SMA (α-SMA): increased; expression level of CD31 (CD31): decreased; effect on lumen formation of HUVEC [2]: inhibited lumen formation; effect on lumen formation of HUVEC (HUVEC): inhibited lumen formation
"NCCCC[C@H](NC(=O)OCc1ccccc1)C(=O)O [Z-Lys-OH, N^α-Carbobenzoxy-L-lysine]",no reduction in absorbance was observed,reduction in absorbance was observed for neither,
